Assay results taken from patent US12414972B2 (University of South Florida, priority 2021, dated 2025).

How the values were obtained:
mice gut = test: Oral administration of ethanolamine in mice; format: in vivo
Source text: (§1) RNA isolation and gene expression analyses.
(§2) miRNA profiling and expression analyses.

enteroids = test: Ethanolamine treatment of enteroids, expression analyses; format: cell-based, mouse
Procedure: Enteroids development and treatments. To develop mouse enteroids, entire small intestine was collected from mice and flushed with pre-cooled Dulbecco's phosphate buffered saline (DPBS). The lengthwise cut-opened ileum was washed with cooled PBS and fragmented into 2 mm small pieces, then transferred to a 50-ml conical flask containing cleaned pre-cooled PBS. Tissue fragments were incubated in the 25 ml of pre-warmed Trypsin (Gibco) on a rocking platform for 15 minutes. After removing the trypsin, tissue pieces were washed with 10 ml pre-cold PBS with 0.1% bovine serum albumin and filtered in a 50 ml conical tube through a 70 μm cell strainer (Falcon). These pieces were then centrifuged at 290×g for 5 min at 4° C., and the intestinal crypt-containing pallets were suspended in the 10 mL cold DMEM: F-12 (Gibco) and centrifuged at 500×g for 10 minutes followed by resuspending in 150 μL IntestiCult Organoid Growth Medium (StemCell) with […] gentamicin (Gibco). The Matrigel Matrix (Corning) was added to the suspension and the mixture of 50 μL was used to form a dome at the center of a prewarmed 24-well culture plate and incubated at 37° C. and 5% CO2 for 30 minutes to allow the Matrigel to set. To maintain the cultures, the IntestiCult Organoid Growth Medium was changed three times/week, and images were captured by from day 1 to 12. […] The organoids were harvested after 2 days of treatment(s) for miRNA, mRNA, and protein analyses. Experiments were repeated three times.
as §1, §2

Caco2 cells = test: Ethanolamine treatment of Caco2 cells, expression analyses; format: cell-based, Human
Source text: as §1, §2

Caco-2 cell monolayers = test: Transepithelial electric resistance (TEER) assay in Caco-2 cell monolayers; format: cell-based, Human; conditions: ethanolamine treatment, up to 8 hrs
Procedure: Transepithelial electric resistance (TEER) assay in Caco-2 cell monolayers. Human intestinal epithelial Caco-2 cells (American Type Culture Collection) were seeded on apical chamber made of polyester membrane filters with 0.4 μm pore size of 12-well transwell plates (Costar) at a density of 3×10^5/well. The culture medium from both apical and basolateral compartment were changed every two days. The cells were allowed to fully differentiate for 21 days; and fully differentiated cells were challenged with FCM and metabolites for next 8 hours with continuous measuring of TEER values, using an EVOM2 Epithelial Voltometer (WPI) according to the manufacturer's instruction. The blank inert resistance value (the insert with only culture media) was subtracted from the measured resistance value of each sample and final resistance in ohm×cm2 was calculated by multiplying the sample resistance by the area of the membrane.

miR101a-3p promoter = test: Promoter luciferase assay in Caco-2 cells; format: cell-based, Human
Procedure: Promoter luciferase assay. Caco-2 cells were seeded onto a 96-well plate at a density of 2×10^4 cells/well and transfected with miR101a-3p promoter pMK-RQ (KanR) reporter vector of 4 different nucleotide sequence (−1 to −500, −1 to −1000, −1 to −1500 and −1 to −2000) from its TSS (Transcription start site) and pMK-RQ (control vector using Lipofectamine 3000 transfection kit (Invitrogen). The TSS of miR101a-3p is located at position: chr1 65067704 (genome version hg38) as reported earlier. (Huang et al., 2017). The cells were collected at various time point (0, 1, 3, 5, 7 and 10 hrs) after transfection. The expression level of the firefly luciferase reporter gene was measured using Pierce Firefly Luciferase Glow Assay Kit.

[1] = oral, 100 mg/kg body weight, one dose, vs non-treated controls
[2] = among top 6 selected metabolites

NCCO [ethanolamine]
expression of miR101a-3p in the colon of mice (mice gut; ethanolamine treatment): significantly increased
expression of miR101a-3p in the ileum of mice (mice gut; ethanolamine treatment): significantly increased
expression of inflammatory markers (IL-1 β, IL-6 and TNF α) in the intestine (ileum) (mice gut; ethanolamine treatment in mice vs controls): significantly increased
expression (Arid3a) in mouse intestine (mice gut; ethanolamine treatment vs controls, FIG. 5N): significantly increased
leaky gut (FITC-dextran assay) (mice gut; oral, 100 mg/kg body weight, one dose, mice): significantly increased
expression of (Tjp1) mRNA in the colon (mice gut; [1]): significantly reduced
expression of (Tjp1) mRNA in the ileum (mice gut; [1]): significantly reduced
expression of (Tjp1) protein in the ileum (mice gut; [1]): significantly reduced
expression of Tjp1 mRNA in the enteroids (enteroids; [2]): most dramatically reduced
expression of Arid3a in the enteroids (enteroids; ethanolamine treatment): significantly increased
expression of miR101a-3p in enteroids (enteroids; ethanolamine treatment): significantly increased
expression of inflammatory markers like IL-1, IL-6, and TNF-α (Caco2 cells; FIG. 12C, Caco2 culture experiments): significantly reduced
expression of Tjp1 mRNA in the Caco2 cells (Caco2 cells; [2]): most dramatically reduced
expression of miR101a-3p in Caco2 cells (Caco2 cells; ethanolamine treatment): significantly increased
expression (Arid3a) in Caco2 cells (Caco2 cells; ethanolamine treatment vs controls, FIG. 5M): significantly increased
TEER in the monolayers of Caco2 cells (Caco-2 cell monolayers): reduced
miR101a-3p promoter activity (miR101a-3p promoter; vector carrying −1 to 500 bp fragment): no change
miR101a-3p promoter activity (miR101a-3p promoter; vector carrying −1 to 1500 bp fragment): significantly increased
miR101a-3p promoter activity (miR101a-3p promoter; vector carrying −1 to −1000 bp fragment): significantly increased
miR101a-3p promoter luciferase activity (miR101a-3p promoter; vector with −1 to −2000 bp of TSS vs empty vector): increased
